In paper PMC8267177, “Cyclic Peptoid-Peptide Hybrids as Versatile Molecular Transporters” (Frontiers in Chemistry, 2021):
Entries after “also recorded” stand apart in the source; their conditions may differ. Non-standard residues stand in square brackets, D forms with d. Residues, ends and D or L forms follow the SMILES beside them. *: point of attachment. RhodamineB = CCN(CC)c1ccc2c(-c3ccccc3C(=O)*)c3ccc(=[N+](CC)CC)cc-3oc2c1; Gly(Nα-4-Cl-benzyl) = O=C(O)CNCc1ccc(Cl)cc1; Nphe = O=C(O)CNCc1ccccc1; NBuGly = CCCCNCC(=O)O; Nlys = NCCCCNCC(=O)O

Experiments:
[1] = in vitro; assay type: cell-based; conditions: human
Method: The cytotoxicity of the macrocyclic hybrids 15–24, as well as their conjugates 15-Rhod to 24-Rhod, was examined using a standard MTT assay in human epithelial cervix carcinoma (HeLa) cells. […] ([Mosmann, 1983]; [Tolosa et al., 2015]) After treatment of HeLa cells with different concentrations of the respective macrocycles 15–24 (0.50─50 µM) for 72 h, no significant cytotoxic effects were observed. […] As shown by many research groups that Rhodamine B by itself is not efficiently entering the cells showing therefore an LD50 > 50 μM, we assume that this the toxicity of the Rhodamine moiety might be higher when increasingly localizing in the mitochondria to a higher amount.
In a 96-well plate (Corning® Costar® 3596 96-Well Cell Culture Cluster), 1.0 × 10^4 HeLa-cells per well of a 96 well plate were cultivated for 16 h. Stock solutions of the single compounds in dimethylsulfoxide were diluted to 0.50 µm, 5.00 µm, and 50.0 µm with cell culture medium (DMEM + 10% FBS + 1% P/S) to ensure a final concentration of DMSO below 0.5%. 100 µL of the prepared DMEM diluted compounds were added to each well and the cells were incubated for 72 h. All experiments were performed in triplicates. Cells that were solely treated with the culture medium containing 0.5% of DMSO served as a negative control. After incubation, the positive control (cells in DMSO plus 0.5% DMSO) was treated with 1% Triton-X. To determine the viability of the cells 20 µL of a freshly prepared solution of 3-(4,5-dimethylthiazol-2-yl)-2,5-diphenyltetrazolium bromide (MTT, 2.73 mg/mL, Sigma-Aldrich®) in culture medium were added to each well and incubated at 37 °C for 4 h. The reaction was stopped using 100 µL of Solubilization Solution / Stop Mix (CellTiter 96® Non-Radioactive Cell Proliferation Assay, Promega). After 24 h, the absorption (A) of every well at 595 nm was monitored using a 96-well plate reader (Ultra Microplate Reader ELx808, Biotech Instruments Inc.).

[2] = tested on: HeLa cells; test: Localization assay: cellular uptake and organellar localization by confocal microscopy; assay type: cell-based, human; conditions: 5 µM, 5 h, 37 °C; for Cellular uptake efficiency: confocal microscopy of Rhodamine B fluorescence (Exc 532 nm, Em 570–620 nm); for Organellar localization (mitochondria): counterstaining with MitoTracker Green, confocal microscopy
Method: As 15-Rhod to 24-Rhod were not toxic at 5 µM the following transport experiments were carried out using this concentration. To study their cellular uptake and organellar localization, HeLa cells were treated with 5 µM of the cyclic conjugates 15-Rhod to 24-Rhod for 5 h and eventually imaged using confocal microscopy (for experimental details, see supplemental Material).
FIGURE 4 Localization of the macrocyclic conjugates 15-Rhod to 24-Rhod in HeLa cells. After incubation with a 5.0 µM solution of the respective transporters for 5 h, the cellular uptake was monitored via fluorescent confocal microscopy (Rhodamine B labeled hybrids: λ Exc = 532 nm, λ Em = 570–620 nm; MitoTracker® Green: λ Exc = 488 nm, λ Em = 490–540 nm; Hoechst 33,342: λ Exc = 405 nm, λ Em = 430–490 nm). Counterstaining with MitoTracker® Green visualized mitochondria (green). Staining with 2 μg/ml Hoechst 33,342 indicated nuclei (blue). Scale bar: 10 µm.
In an 8-well chamber slide (µ-Slide 8-Well ibidiTreat, ibidi®), 1.0 × 10^4 HeLa cells per well were cultivated for 16 h. The cyclic hybrids were diluted with DMEM to yield a 5 µM concentration. The cells were treated with the hybrids for 5 h at 37 °C. To monitor the intracellular localization, the cells were counterstained with MitoTracker® (Invitrogen) and 2 µg/mL Hoechst 33342. After washing with DPBS (3 ×), the luminescence was monitored via life-cell imaging using a Leica TCS-SPE confocal microscope (DM2500 inverse microscope, 8 Bit resolution, 1024 × 1024 pixels), equipped with a 1 Airy pinhole aperture (111.5 µm), ACS APO 63.0x/1.30 OIL UV and 40x/1.14 OIL UV objectives and the images were processed by the Leica Application Suite (LAS-AF) Version 2.1.2 build 4530 software. Images were taken with a scanning frequency of 400 Hz. Background noise was averaged by an eight-fold repetition of the scan process. The cyclic hybrids were excited at 532 nm, MitoTracker® Green at 488 nm, and Hoechst 33342 at 405 nm. The exposure was set to minimize oversaturated pixels in the final images. Fluorescence emission was measured at 570–620 nm for the detection of rhodamine B labeled hybrids, at 490–540 nm for the detection of mitochondria, and 430–490 nm for the detection of nuclei.

SMILES | IC50 at 72 h [1] [µM] | Cellular uptake efficiency [2] | Organellar localization (mitochondria) [2]
CCN(CC)c1ccc2c(-c3ccccc3C(=O)NCCCCN3CC(=O)N[C@@H](Cc4ccccc4)C(=O)N(Cc4ccccc4)CC(=O)N(Cc4ccccc4)CC3=O)c3ccc(=[N+](CC)CC)cc-3oc2c1 [15-Rhod, cyclo-(l-Phe-N1ph-N1ph-N4am(Rhod))] (cyclo(F[Nphe][Nphe][Nlys](RhodamineB))) | > 50 |  | 
CCN(CC)c1ccc2c(-c3ccccc3C(=O)NCCCCN3CC(=O)N(Cc4ccccc4)CC(=O)N[C@@H](Cc4ccccc4)C(=O)N(Cc4ccc(Cl)cc4)CC3=O)c3ccc(=[N+](CC)CC)cc-3oc2c1 [16-Rhod, cyclo-(l-Phe-N1ph^pCl-N4am(Rhod)-N1ph)] (cyclo(F[Gly(Nα-4-Cl-benzyl)][Nlys](RhodamineB)[Nphe])) | 30 |  | 
CCCCN1CC(=O)N(Cc2ccccc2)CC(=O)N(CCCCNC(=O)c2ccccc2-c2c3ccc(=[N+](CC)CC)cc-3oc3cc(N(CC)CC)ccc23)CC(=O)N[C@@H](Cc2ccccc2)C1=O [17-Rhod, cyclo-(l-Phe-N3m-N1ph-N4am(Rhod))] (cyclo(F[NBuGly][Nphe][Nlys](RhodamineB))) | > 50 |  | 
CCN(CC)c1ccc2c(-c3ccccc3C(=O)NCCCCN3CC(=O)N[C@@H](Cc4ccc(O)cc4)C(=O)N[C@@H](Cc4ccccc4)C(=O)N(Cc4ccccc4)CC3=O)c3ccc(=[N+](CC)CC)cc-3oc2c1 [18-Rhod, cyclo-(l-Phe-N4am(Rhod)-N1ph-l-Tyr)] (cyclo(F[Nphe][Nlys](RhodamineB)Y)) | 33 | not internalized | 
CCN(CC)c1ccc2c(-c3ccccc3C(=O)NCCCC[C@@H]3NC(=O)CN(Cc4ccccc4)C(=O)CN(Cc4ccccc4)C(=O)[C@H](Cc4c[nH]c5ccccc45)NC3=O)c3ccc(=[N+](CC)CC)cc-3oc2c1 [19-Rhod, cyclo-(l-Trp-N1ph-N1ph-l-Lys(Rhod))] (cyclo(K(RhodamineB)W[Nphe][Nphe])) | 34 |  | 
CCN(CC)c1ccc2c(-c3ccccc3C(=O)NCCCC[C@@H]3NC(=O)CN(Cc4ccc(Cl)cc4)C(=O)CN(Cc4ccc(Cl)cc4)C(=O)[C@H](Cc4c[nH]c5ccccc45)NC3=O)c3ccc(=[N+](CC)CC)cc-3oc2c1 [20-Rhod, cyclo-(l-Trp-N1ph^pCl-N1ph^pCl-l-Lys(Rhod))] (cyclo([Gly(Nα-4-Cl-benzyl)][Gly(Nα-4-Cl-benzyl)]K(RhodamineB)W)) | > 50 |  | 
CCCCN1CC(=O)N[C@@H](CCCCNC(=O)c2ccccc2-c2c3ccc(=[N+](CC)CC)cc-3oc3cc(N(CC)CC)ccc23)C(=O)N[C@@H](Cc2ccc(O)cc2)C(=O)N(CCCC)CC1=O [21-Rhod, cyclo-(l-Tyr-N3m-N3m-l-Lys(Rhod))] (cyclo(K(RhodamineB)Y[NBuGly][NBuGly])) | 36 |  | 
CCN(CC)c1ccc2c(-c3ccccc3C(=O)NCCCCN3CC(=O)N(Cc4ccc(Cl)cc4)CC(=O)N(Cc4ccc(Cl)cc4)CC(=O)N(Cc4ccc(Cl)cc4)CC(=O)N[C@@H](Cc4ccccc4)C(=O)N[C@@H](Cc4ccccc4)C3=O)c3ccc(=[N+](CC)CC)cc-3oc2c1 [23-Rhod, cyclo-(l-Phe-N1ph^pCl-N1ph^pCl-N1ph^pCl-N4am(Rhod)-l-Phe)] (cyclo(F[Nlys](RhodamineB)[Gly(Nα-4-Cl-benzyl)][Gly(Nα-4-Cl-benzyl)][Gly(Nα-4-Cl-benzyl)]F)) | 6 | significantly less efficient | Mitochondrial accumulation
CCCCN1CC(=O)N[C@@H](Cc2ccccc2)C(=O)N[C@@H](Cc2ccccc2)C(=O)N(CCCCNC(=O)c2ccccc2-c2c3ccc(=[N+](CC)CC)cc-3oc3cc(N(CC)CC)ccc23)CC(=O)N(Cc2ccccc2)CC(=O)N(CCCC)CC1=O [24-Rhod, cyclo-(l-Phe-N3m-N3m-N1ph-N4am(Rhod)-l-Phe)] (cyclo(F[Nlys](RhodamineB)[Nphe][NBuGly][NBuGly]F)) | 26 | efficiently taken up; also recorded: high cellular uptake efficiency | mitochondrial specificity
NCCCCN1CC(=O)N[C@@H](Cc2ccccc2)C(=O)N(Cc2ccccc2)CC(=O)N(Cc2ccccc2)CC1=O [compound 15, cyclo-(l-Phe-N1ph-N1ph-N4am)] (cyclo(F[Nphe][Nphe][Nlys])) | > 50 |  | 
NCCCCN1CC(=O)N(Cc2ccccc2)CC(=O)N[C@@H](Cc2ccccc2)C(=O)N(Cc2ccc(Cl)cc2)CC1=O [compound 16, cyclo-(l-Phe-N1ph^pCl-N4am-N1ph)] (cyclo(F[Gly(Nα-4-Cl-benzyl)][Nlys][Nphe])) | > 50 |  | 
CCCCN1CC(=O)N(Cc2ccccc2)CC(=O)N(CCCCN)CC(=O)N[C@@H](Cc2ccccc2)C1=O [compound 17, cyclo-(l-Phe-N3m-N1ph-N4am)] (cyclo(F[NBuGly][Nphe][Nlys])) | > 50 |  | 
NCCCCN1CC(=O)N(Cc2ccccc2)CC(=O)N[C@@H](Cc2ccc(O)cc2)C(=O)N[C@@H](Cc2ccccc2)C1=O [compound 18, cyclo-(l-Phe-N4am-N1ph-l-Tyr)] (cyclo(F[Nlys][Nphe]Y)) | > 50 |  | 
NCCCC[C@@H]1NC(=O)CN(Cc2ccccc2)C(=O)CN(Cc2ccccc2)C(=O)[C@H](Cc2c[nH]c3ccccc23)NC1=O [compound 19, cyclo-(l-Trp-N1ph-N1ph-l-Lys)] (cyclo(KW[Nphe][Nphe])) | > 50 |  | 
NCCCC[C@@H]1NC(=O)CN(Cc2ccc(Cl)cc2)C(=O)CN(Cc2ccc(Cl)cc2)C(=O)[C@H](Cc2c[nH]c3ccccc23)NC1=O [compound 20, cyclo-(l-Trp-N1ph^pCl-N1ph^pCl-l-Lys)] (cyclo([Gly(Nα-4-Cl-benzyl)][Gly(Nα-4-Cl-benzyl)]KW)) | > 50 |  | 
CCCCN1CC(=O)N[C@@H](CCCCN)C(=O)N[C@@H](Cc2ccc(O)cc2)C(=O)N(CCCC)CC1=O [compound 21, cyclo-(l-Tyr-N3m-N3m-l-Lys)] (cyclo(KY[NBuGly][NBuGly])) | > 50 |  | 
NCCCCN1CC(=O)N[C@@H](Cc2ccccc2)C(=O)N[C@@H](Cc2ccccc2)C(=O)N(Cc2ccccc2)CC(=O)N(Cc2ccccc2)CC(=O)N(Cc2ccccc2)CC1=O [compound 22, cyclo-(l-Phe-N1ph-N1ph-N1ph-N4am-l-Phe)] (cyclo(FF[Nphe][Nphe][Nphe][Nlys])) | > 50 |  | 
NCCCCN1CC(=O)N[C@@H](Cc2ccccc2)C(=O)N[C@@H](Cc2ccccc2)C(=O)N(Cc2ccc(Cl)cc2)CC(=O)N(Cc2ccc(Cl)cc2)CC(=O)N(Cc2ccc(Cl)cc2)CC1=O [compound 23, cyclo-(l-Phe-N1ph^pCl-N1ph^pCl-N1ph^pCl-N4am-l-Phe)] (cyclo(FF[Gly(Nα-4-Cl-benzyl)][Gly(Nα-4-Cl-benzyl)][Gly(Nα-4-Cl-benzyl)][Nlys])) | 20 |  | 
CCCCN1CC(=O)N(Cc2ccccc2)CC(=O)N(CCCCN)CC(=O)N[C@@H](Cc2ccccc2)C(=O)N[C@@H](Cc2ccccc2)C(=O)N(CCCC)CC1=O [compound 24, cyclo-(l-Phe-N3m-N3m-N1ph-N4am-l-Phe)] (cyclo(FF[NBuGly][NBuGly][Nphe][Nlys])) | > 50 |  | 
